In patent publication US11690810B2, “Combination treatment of bacterial infection” (The Chinese University of Hong Kong, priority 2018, dated 2023):

Legend:
Assay in all cases: MIC and checkerboard (FIC) assay
CA-MRSA strain ST30 = format: cell-based, Staphylococcus aureus
[1] = system: clinical fusidic acid resistant MRSA strain 73621; format: cell-based, Staphylococcus aureus; details: for FIC / MIC combine: 73621
[2] = system: clinical fusidic acid resistant MRSA strain 96591; format: cell-based, Staphylococcus aureus; details: for FIC / MIC combine: 96591
[3] = system: S. aureus SA-APH2″-AAC6′ (APH2), resistant to gentamicin
[4] = system: S. aureus SA-ANT4′ (ANT4), resistant to fusidic acid; details: for FIC / MIC combine: ANT4
MRSA SA-ST239 = system: MRSA SA-ST239
[5] = system: S. aureus ATCC25923 (methicillin sensitive); details: Staphylococcus aureus, ATCC25293 / ATCC25923, read-out: MIC alone
[6] = Staphylococcus aureus, MRSA, read-out: MIC alone
[7] = APH2″-AAC6′, ECG with WQD-169 (Kuraridin)
[8] = Staphylococcus aureus, read-out: MIC 99.9
[9] = Staphylococcus aureus, read-out: MIC alone
[10] = ST239, ECG with WQD-169 (Kuraridin)

O=C(O[C@@H]1Cc2c(O)cc(O)cc2O[C@@H]1c1ccc(O)c(O)c1)c1cc(O)c(O)c(O)c1 [ECG, epicatechin gallate]
8 µg/mL: MIC90 ([3]; Staphylococcus aureus) | MIC90 ([4]; Staphylococcus aureus)
1 µg/mL: MIC combine ([3]; APH2″-AAC6′, ECG with WQD-164)
0.002: FIC ([2]; ECG+Kur+Fus)
0.25 µg/mL: MIC combine (CA-MRSA strain ST30; ST30, ECG with Kur) | MIC combine (CA-MRSA strain ST30; ST30, ECG+Kur+Van) | MIC combine ([1]; ECG+Kur+Fus) | MIC combine ([2]; ECG+Kur+Fus) | MIC combine ([3]; APH2, ECG+Kur+Gen) | MIC combine (MRSA SA-ST239; ST239, ECG+Kur+Van)
0.0009: FIC ([3]; APH2, ECG+Kur, no Gen) | FIC ([3]; APH2, Kuraridin with ECG) | FIC ([3]; APH2″-AAC6′, ECG with WQD-165) | FIC ([3]; APH2″-AAC6′, ECG with WQD-175) | FIC (MRSA SA-ST239; ST239, ECG with WQD-165) | FIC (MRSA SA-ST239; ST239, ECG with WQD-175)
0.0004: FIC (CA-MRSA strain ST30; ST30, ECG with Kur) | FIC (CA-MRSA strain ST30; ST30, ECG+Kur+Van) | FIC (MRSA SA-ST239; ST239, ECG+Kur+Van)
16 µg/mL: MIC combine ([1]; ECG+Kur, no Fus) | MIC combine ([2]; ECG+Kur, no Fus) | MIC combine ([4]; ECG+Kur, no Fus) | MIC combine ([4]; Kuraridin with ECG) | MIC90 (MRSA SA-ST239; Staphylococcus aureus, MRSA)
> 512 µg/mL: MIC99 [3, 8] | MIC99 [4, 8] | MIC99 (MRSA SA-ST239; Staphylococcus aureus, MRSA, read-out: MIC 99.9)
0.007: FIC [3, 7] | FIC (MRSA SA-ST239; [10])
512 µg/mL: MIC alone (CA-MRSA strain ST30; ST30, Table 5) | MIC (CA-MRSA strain ST30; [6]) | MIC [1, 6] | MIC [2, 6] | MIC alone ([3]; APH2 (gentamicin resistant)) | MIC [3, 9] | MIC alone ([3]; Strain APH2″-AAC6′, Table 9) | MIC alone ([4]; ANT4 (fusidic acid resistant)) | MIC [4, 9] | MIC alone (MRSA SA-ST239; ST239, Table 5) | MIC (MRSA SA-ST239; [6]) | MIC alone (MRSA SA-ST239; Strain ST239, Table 9) | MIC [5]
4 µg/mL: MIC combine [3, 7] | MIC combine ([4]; ECG+Kur+Fus) | MIC combine (MRSA SA-ST239; [10])
0.03: FIC ([4]; ECG+Kur, no Fus) | FIC ([4]; Kuraridin with ECG)
0.0007: FIC ([4]; ECG+Kur+Fus)
0.0005: FIC ([3]; APH2, ECG+Kur+Gen)
0.001: FIC ([3]; APH2″-AAC6′, ECG with WQD-164) | FIC (MRSA SA-ST239; ST239, ECG with WQD-164)
0.003: FIC ([1]; ECG+Kur, no Fus) | FIC ([2]; ECG+Kur, no Fus)
0.5 µg/mL: MIC combine ([3]; APH2, ECG+Kur, no Gen) | MIC combine ([3]; APH2, Kuraridin with ECG) | MIC combine ([3]; APH2″-AAC6′, ECG with WQD-165) | MIC combine ([3]; APH2″-AAC6′, ECG with WQD-175) | MIC combine (MRSA SA-ST239; ST239, ECG with WQD-165) | MIC combine (MRSA SA-ST239; ST239, ECG with WQD-175)
2 µg/mL: MIC combine (MRSA SA-ST239; ST239, ECG with Kur) | MIC combine (MRSA SA-ST239; ST239, ECG with WQD-164)
0.004: FIC ([1]; ECG+Kur+Fus) | FIC (MRSA SA-ST239; ST239, ECG with Kur)
